Test results from article PMC6475490 (Psychopharmacology, 2018).
Entries after “also recorded” stand apart in the source; their conditions may differ.

Experiments:
DAT, SERT, and NET = type: biochemical, rat; details: from DAT, SERT EC50 and NET screening data
rats [1] = details: ref Glennon et al. 1987; cited from earlier work
baboons = details: ref Kaminski and Griffiths 1994; cited from earlier work
DAT = DAT (Rattus norvegicus, UniProt P23977); assay: DAT-mediated [3H]DA release assay in rat brain synaptosomes; type: biochemical
Chain of DAT (P23977 whole entry): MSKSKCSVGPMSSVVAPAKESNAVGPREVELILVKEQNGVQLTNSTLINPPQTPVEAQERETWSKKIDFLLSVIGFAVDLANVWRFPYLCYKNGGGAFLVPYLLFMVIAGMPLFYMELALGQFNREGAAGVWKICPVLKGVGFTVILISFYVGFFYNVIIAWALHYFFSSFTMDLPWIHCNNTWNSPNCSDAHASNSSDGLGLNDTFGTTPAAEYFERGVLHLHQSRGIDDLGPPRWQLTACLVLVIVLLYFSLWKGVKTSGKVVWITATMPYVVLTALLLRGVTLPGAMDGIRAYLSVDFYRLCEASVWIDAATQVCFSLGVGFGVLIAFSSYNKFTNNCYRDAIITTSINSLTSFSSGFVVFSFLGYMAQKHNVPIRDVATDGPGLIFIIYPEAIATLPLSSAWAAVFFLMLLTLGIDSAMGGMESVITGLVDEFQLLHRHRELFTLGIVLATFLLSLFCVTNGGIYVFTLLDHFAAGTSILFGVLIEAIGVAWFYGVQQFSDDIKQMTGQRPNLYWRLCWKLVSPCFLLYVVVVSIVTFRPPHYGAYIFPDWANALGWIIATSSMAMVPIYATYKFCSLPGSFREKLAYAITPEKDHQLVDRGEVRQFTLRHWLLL

NET = NET (Rattus norvegicus, UniProt Q63380); assay: NET-mediated [3H]MPP+ release screen in rat brain synaptosomes; type: biochemical; details: based on % release at 10 µM screening data
Chain of NET (Q63380 1-617): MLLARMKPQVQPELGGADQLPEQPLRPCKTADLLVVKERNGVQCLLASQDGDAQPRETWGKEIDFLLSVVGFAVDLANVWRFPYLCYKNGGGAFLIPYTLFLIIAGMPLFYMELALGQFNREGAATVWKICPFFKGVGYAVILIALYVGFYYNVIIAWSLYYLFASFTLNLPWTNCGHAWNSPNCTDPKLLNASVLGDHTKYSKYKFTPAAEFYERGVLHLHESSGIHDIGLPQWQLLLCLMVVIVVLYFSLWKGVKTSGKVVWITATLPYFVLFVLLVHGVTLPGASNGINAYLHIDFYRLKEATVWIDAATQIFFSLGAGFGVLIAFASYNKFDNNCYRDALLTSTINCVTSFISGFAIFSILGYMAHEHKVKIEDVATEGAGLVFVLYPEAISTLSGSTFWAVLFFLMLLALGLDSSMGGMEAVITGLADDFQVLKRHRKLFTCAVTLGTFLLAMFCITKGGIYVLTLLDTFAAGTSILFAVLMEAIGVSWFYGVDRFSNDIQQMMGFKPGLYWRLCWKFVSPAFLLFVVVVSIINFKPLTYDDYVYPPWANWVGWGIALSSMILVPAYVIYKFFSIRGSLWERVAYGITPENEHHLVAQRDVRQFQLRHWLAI

SERT = SERT (Rattus norvegicus, UniProt P31652); assay: SERT-mediated [3H]5-HT release assay in rat brain synaptosomes; type: biochemical; details: relative to methcathinone 1
Chain of SERT (P31652 whole entry): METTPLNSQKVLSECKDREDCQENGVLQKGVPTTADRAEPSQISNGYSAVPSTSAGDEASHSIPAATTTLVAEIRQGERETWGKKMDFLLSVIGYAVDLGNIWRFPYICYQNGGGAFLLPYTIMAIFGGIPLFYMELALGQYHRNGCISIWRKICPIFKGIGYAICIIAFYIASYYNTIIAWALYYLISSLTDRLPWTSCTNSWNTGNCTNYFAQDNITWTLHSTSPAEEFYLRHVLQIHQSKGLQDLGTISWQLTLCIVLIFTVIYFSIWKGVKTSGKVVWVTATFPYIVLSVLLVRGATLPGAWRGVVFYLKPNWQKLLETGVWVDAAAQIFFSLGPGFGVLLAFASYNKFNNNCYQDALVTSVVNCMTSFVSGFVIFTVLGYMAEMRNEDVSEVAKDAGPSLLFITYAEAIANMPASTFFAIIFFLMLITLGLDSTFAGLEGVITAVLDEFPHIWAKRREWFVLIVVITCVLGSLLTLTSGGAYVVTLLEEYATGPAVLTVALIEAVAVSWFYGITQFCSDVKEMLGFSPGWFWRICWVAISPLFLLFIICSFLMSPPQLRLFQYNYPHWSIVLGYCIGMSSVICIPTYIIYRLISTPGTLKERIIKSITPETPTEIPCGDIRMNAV

rats [2] = details: ref Gatch et al. 2015; cited from earlier work
transporters = details: CF3 analogs; ref Cozzi et al. 2013; cited from earlier work

SMILES	transporter selectivity profile in words (DAT, SERT, and NET)	fold less potent at DA release (DAT) compared to 1 (DAT; relative to methcathinone 1) [fold]	fold more potent at 5-HT release (SERT) compared to 1 (SERT) [fold]	also measured
CNC(C)C(=O)c1ccccc1 (centres unmarked) [Compound 1, methcathinone]	DAT selective	–	–	substitution for amphetamine in drug discrimination (rats [1]): substitute for amphetamine; self-administration (baboons): dose-dependently maintain self-administration
Cl.NCC(=O)c1ccccc1 [Compound 6, phenacylamine, reference compound]	DAT selective	4.2	–	–
CNC(C)C(=O)c1ccccc1F (centres unmarked) [Compound 7]	DAT selective	–	–	–
CNC(C)C(=O)c1ccccc1C(F)(F)F (centres unmarked) [Compound 8]	selective NET releaser; also recorded: selective NE releasers	–	–	NET / NE release activity in words (NET): appears active as a NE releaser
CNC(C)C(=O)c1ccccc1OC(F)(F)F (centres unmarked) [Compound 9]	–	–	–	NET / NE release activity in words (NET): weak
CNC(C)C(=O)c1ccccc1C (centres unmarked) [Compound 10]	DAT selective	2	12	–
CNC(C)C(=O)c1cccc(Br)c1 (centres unmarked) [Compound 11]	–	–	31	fold more potent at DA release (DAT) compared to 1 (DAT; relative to methcathinone 1): ~2 fold
CNC(C)C(=O)c1cccc(F)c1 (centres unmarked) [Compound 13, 3-fluoromethcathinone]	highly potent, DAT selective compound	–	2.9	locomotor stimulation (rats [2]): induce locomotor stimulation
CNC(C)C(=O)c1cccc(C(F)(F)F)c1 (centres unmarked) [Compound 14]	SERT/NET selective releasers; also recorded: selective 5-HT releasers	26	14	–
CNC(C)C(=O)c1cccc(C)c1 (centres unmarked) [Compound 16]	–	–	14.6	–
CNC(C)C(=O)c1ccc(Br)cc1 (centres unmarked) [Compound 19]	–	–	100	–
CNC(C)C(=O)c1ccc(F)cc1 (centres unmarked) [Compound 21]	–	2.4	2.9	–
CNC(C)C(=O)c1ccc(C(F)(F)F)cc1 (centres unmarked) [Compound 22]	most serotonergic; also recorded: low DAT selectivity	–	15	EC50 (DAT; read-out: DA release EC50, bound stated): > 4 µM; relative selectivity (DAT selectivity) (transporters): < 0.04
CNC(C)C(=O)c1ccc(C)cc1 (centres unmarked) [Compound 24, mephedrone, reference compound]	–	–	36	–
CNC(C)C(=O)c1cccc2ccccc12 (centres unmarked) [Compound 26, 1-naphthylmethcathinone]	–	–	198	–
CNC(C)C(=O)c1c[nH]c2ccccc12 (centres unmarked) [Compound 28, 3-indoylmethcathinone]	–	~2	103	NET / NE release activity in words (NET): much weaker than its DAT release potency
CNC(C)C(=O)c1ccc(C)c(Cl)c1 (centres unmarked) [Compound 31]	–	2.5	102	–
